Assay results from patent US20250074920A1, “MACROCYCLIC COMPOUNDS AND USE AS KINASE INHIBITORS” (BLOSSOMHILL THERAPEUTICS, INC., priority 2022, published 2025).

Legend:
Assay in all cases: KINOMEscan kinase binding assay
[1] = tested on: JAK1(JH1domain-catalytic); details: for % Ctrl: JAK1(JH1domain-catalytic), at 1 μM; for Kd: read-out: JAK1(JH1 domain-catalytic) Kd
Outline: (§1)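 KINOMEscan competition assay. T7-phage kinase fusions (E. coli lysates) or DNA-tagged HEK-293 kinases; immobilized biotinylated ligand on beads; 1 h RT incubation; qPCR detection of bound kinase. Output: % Ctrl or Kd.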

FGFR2 = details: at 1 μM
Outline: (§2)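 Competition binding format: a test compound at a single concentration displaces phage-tagged or DNA-tagged kinase from an immobilized affinity ligand. After washing, kinase is released with 0.5 μM free ligand (30 min, room temperature) and measured by qPCR. Data are given as % Ctrl.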

TIE1 = details: at 1 μM
Outline: as §2

EPHA5 = details: at 1 μM
Outline: as §1

EPHB2 = details: at 1 μM
Outline: as §2

CSF1R = details: at 1 μM
Outline: as §2

EPHB4 = details: at 1 μM
Outline: as §2

CTK = details: at 1 μM
Outline: as §2

MET = details: at 1 μM
Outline: as §2

DDR2 = details: at 1 μM
Outline: as §2

## Cc1cc2c([nH]1)/C=C1\C(=O)Nc3ccc(cc31)-c1c(nn(C)c1C)OCCCN(C)C2=O [Cpd. 1, [3a(4)Z]-6,9,15,16-tetramethyl-9,10,11,12-tetrahydro-15H-1,17-(ethanediylidene)pyrazolo[4,3-n]dipyrrolo[3,2-g:3′,4′-j][1,5]oxazacyclopentadecine-3,8(2H,5H)-dione]
[1]
  % Ctrl: 82%
  Kd: > 10 µM
FGFR2
  % Ctrl: 96%
TIE1
  % Ctrl: 100%
EPHA5
  % Ctrl: 93%
EPHB2
  % Ctrl: 97%
CSF1R
  % Ctrl: 98%
EPHB4
  % Ctrl: 86%
CTK
  % Ctrl: 58%
MET
  % Ctrl: 84%
DDR2
  % Ctrl: 95%

## Cc1cc2c([nH]1)/C=C1\C(=O)Nc3ccc(cc31)-c1c(nn(C)c1C)COCCN(C)C2=O [Cpd. 2, [3a(4)Z]-6,9,15,16-tetramethyl-10,11,13,15-tetrahydro-2H-1,17-(ethanediylidene)pyrazolo[4,3-m]dipyrrolo[3,2-f:3′,4′-i][1,4]oxazacyclopentadecine-3,8(5H,9H)-dione]
[1]
  % Ctrl: 100%
  Kd: > 10 µM
FGFR2
  % Ctrl: 85%
TIE1
  % Ctrl: 61%
EPHA5
  % Ctrl: 99%
EPHB2
  % Ctrl: 97%
CSF1R
  % Ctrl: 82%
EPHB4
  % Ctrl: 100%
CTK
  % Ctrl: 93%
MET
  % Ctrl: 95%
DDR2
  % Ctrl: 100%

## Cc1cc2c([nH]1)/C=C1\C(=O)Nc3c(Cl)cc(cc31)-c1cn(C)nc1COC[C@@H](C)NC2=O [Cpd. 3, [3a(4)Z,10R]-20-chloro-6,10,15-trimethyl-10,11,13,15-tetrahydro-2H-1,17-(ethanediylidene)pyrazolo[4,3-m]dipyrrolo[3,2-f:3′,4′-i][1,4]oxazacyclopentadecine-3,8(5H,9H)-dione]
[1]
  % Ctrl: 100%
  Kd: > 10 µM
FGFR2
  % Ctrl: 90%
TIE1
  % Ctrl: 93%
EPHA5
  % Ctrl: 100%
EPHB2
  % Ctrl: 99%
CSF1R
  % Ctrl: 100%
EPHB4
  % Ctrl: 97%
CTK
  % Ctrl: 80%
MET
  % Ctrl: 100%
DDR2
  % Ctrl: 100%

## C[C@@H]1COCc2nn(C)cc2-c2cc(Cl)c3c(c2)/C(=C/c2[nH]ccc2C(=O)N1)C(=O)N3 [Cpd. 4, [3a(4)Z,10R]-20-chloro-10,15-dimethyl-10,11,13,15-tetrahydro-2H-1,17-(ethanediylidene)pyrazolo[4,3-m]dipyrrolo[3,2-f:3′,4′-i][1,4]oxazacyclopentadecine-3,8(5H,9H)-dione]
[1]
  % Ctrl: 94%
  Kd: > 10 µM
FGFR2
  % Ctrl: 99%
TIE1
  % Ctrl: 84%
EPHA5
  % Ctrl: 100%
EPHB2
  % Ctrl: 96%
CSF1R
  % Ctrl: 92%
EPHB4
  % Ctrl: 98%
CTK
  % Ctrl: 76%
MET
  % Ctrl: 98%
DDR2
  % Ctrl: 79%

## Cc1cc2c([nH]1)/C=C1\C(=O)Nc3c(Cl)cc(cc31)-c1cn(C)nc1COC[C@@H](C)N(C)C2=O [Cpd. 5, [3a(4)Z,10R]-20-chloro-6,9,10,15-tetramethyl-10,11,13,15-tetrahydro-2H-1,17-(ethanediylidene)pyrazolo[4,3-m]dipyrrolo[3,2-f:3′,4′-i][1,4]oxazacyclopentadecine-3,8(5H,9H)-dione]
[1]
  % Ctrl: 100%
  Kd: > 10 µM
FGFR2
  % Ctrl: 100%
TIE1
  % Ctrl: 91%
EPHA5
  % Ctrl: 97%
EPHB2
  % Ctrl: 90%
CSF1R
  % Ctrl: 96%
EPHB4
  % Ctrl: 91%
CTK
  % Ctrl: 84%
MET
  % Ctrl: 96%
DDR2
  % Ctrl: 76%
